Patent publication US20210244029A1, “ANTIMICROBIAL COMPOSITIONS” (Aseptic Health, LLC, priority 2019, published 2021)

System: Pseudomonas aeruginosa ATCC 27853
Assay: Minimal inhibitory concentration (MIC) by serial 1:2 dilutions
Assay type: cell-based
Details: MIC = greatest dilution at which 100% of a starting culture of 1 × 10^6 bacteria are killed

## Sodium Chlorite [0.5% Sodium Chlorite]
  MIC against Pseudomonas aeruginosa ATCC 27853: ⅛
